From patent publication US12173026B2, “PRMT5 inhibitors” (Merck Sharp & Dohme LLC, priority 2018, dated 2024) come the findings set out here.

Counter-ions that a name gives are not always drawn.

In the test the test system is symmetric dimethylation of arginine (SDMA) of PRMT5 substrates in MCF-7 cells. The test is described as follows: PRMT5 Cell Target Engagement (TE) Assay. As to conditions: Homo sapiens, MCF7, 72 h; MCF-7 cells treated for 3 days; nuclear SDMA by high content imaging; top concentration 10000 nM. The class given is cell-based. In a few lines: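 MCF-7 cells treated 3 days at 37 °C with 10-point 1:3 titration from 10000 nM top. Fixed cells stained with anti-SDMA antibody plus Alexa488 secondary and Hoechst; nuclear fluorescence quantified by high-content imaging versus DMSO wells. EC50 from 4-parameter fit of percent fluorescence vs log concentration.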

As a reminder, the EC50 is the concentration at which the effect is half-maximal. Read a low EC50 as an effect from little substance. On to `Nc1nc2nc(C[C@@H]3CC[C@@]4(O)[C@@H]3O[C@@H](n3ccc5c(N)ncnc53)[C@@H]4O)ccc2cc1Cl` [Example 28, (2R,3R,3aS,6S,6aR)-6-(7-amino-6-chloro-1,8-naphthyridin-2-yl)methyl)-2-(4-amino-7H-pyrrolo[2,3-d]pyrimidin-7-yl)hexahydro-3aH-cyclopenta[b]furan-3,3a-diol trihydrochloride], for which a half-maximal response (EC50) required 13 nM. This counts as double-digit nanomolar.
In turn, `Nc1nc2cc(C[C@@H]3CC[C@@]4(O)[C@@H]3O[C@@H](n3cc(F)c5c(N)ncnc53)[C@@H]4O)ccc2cc1Br` [Example 108] gave an EC50 of 0.9 nM.
To `Cc1nc(N)nc2c1ccn2[C@@H]1O[C@@H]2[C@@H](Oc3ccc4cc(Br)c(N)nc4c3)CC[C@]2(O)[C@H]1O` [Example 114, (2R,3R,3aS,6S,6aR)-6-((2-amino-3-bromoquinolin-7-yl)oxy)-2-(2-amino-4-methyl-7H-pyrrolo[2,3-d]pyrimidin-7-yl)hexahydro-3aH-cyclopenta[b]furan-3,3a-diol] belongs 4.4 nM; to `Nc1nc2cc(C[C@@H]3CC[C@@]4(O)[C@@H]3O[C@@H](n3ccc5c(N)ncnc53)[C@@H]4O)ccc2cc1C(F)(F)F` [Example 76, (2R,3R,3aS,6S,6aR)-6-((2-amino-3-(trifluoromethyl)quinolin-7-yl)methyl)-2-(4-amino-7H-pyrrolo[2,3-d]pyrimidin-7-yl)hexahydro-3aH-cyclopenta[b]furan-3,3a-diol], 8.6 nM.
To `CNc1ncnc2c1ccn2[C@@H]1C[C@@H]2[C@H](Cc3ccc4cc(Br)c(N)nc4c3)CC[C@]2(O)[C@H]1O` [Example 97, (1S,2R,3aR,4S,6aR)-4-((2-amino-3-bromoquinolin-7-yl)methyl)-2-(4-(methylamino)-7H-pyrrolo[2,3-d]pyrimidin-7-yl)hexahydropentalene-1,6a(1H)-diol] belongs 1.3 nM; to `C[C@]1(COc2ccc3cc(Br)c(N)nc3c2)O[C@@H](n2ccc3c(N)ncnc32)[C@H](O)[C@@H]1O` [Example 13, (2R,3S,4R,5R)-2-(((2-amino-3-bromoquinolin-7-yl)oxy)methyl)-5-(4-amino-7H-pyrrolo[2,3-d]pyrimidin-7-yl)-2-methyltetrahydrofuran-3,4-diol], 14 nM.
Next, `C[C@]1(CCc2ccc3cc4c(nc3c2)NCC4)C[C@@H](n2ccc3c(N)ncnc32)[C@H](O)[C@@H]1O` [Example 126, (1S,2R,3S,5R)-5-(4-amino-7H-pyrrolo[2,3-d]pyrimidin-7-yl)-3-(2-(2,3-dihydro-1H-pyrrolo[2,3-b]quinolin-7-yl)ethyl)-3-methylcyclopentane-1,2-diol]: 2.9 nM; `Cc1ncnc2c1ccn2[C@@H]1O[C@@H]2[C@@H](Oc3ccc4cc(Br)c(N)nc4c3)CC[C@]2(O)[C@H]1O` [Example 7, (2R,3R,3aS,6S,6aR)-6-((2-amino-3-bromoquinolin-7-yl)oxy)-2-(4-methyl-7H-pyrrolo[2,3-d]pyrimidin-7-yl)hexahydro-2H-cyclopenta[b]furan-3,3a-diol]: 4.8 nM; `Nc1nc2cc(C[C@@H]3CC[C@@]4(O)[C@@H]3C[C@@H](n3cc(F)c5c(N)ncnc53)[C@@H]4O)cc(F)c2cc1F` [Example 30, (1S,2R,3aR,4S,6aR)-4-((2-amino-3,5-difluoroquinolin-7-yl)methyl)-2-(4-amino-5-fluoro-7H-pyrrolo[2,3-d]pyrimidin-7-yl)hexahydropentalene-1,6a(1H)-diol]: 0.8 nM.
`Nc1nc2c(F)c(C[C@@H]3CC[C@@]4(O)[C@@H]3O[C@@H](n3ccc5c(N)ncnc53)[C@@H]4O)ccc2cc1Cl` [Example 26, (2R,3R,3aS,6S,6aR)-6-((2-amino-3-chloro-8-fluoroquinolin-7-yl)methyl)-2-(4-amino-7H-pyrrolo[2,3-d]pyrimidin-7-yl)hexahydro-3aH-cyclopenta[b]furan-3,3a-diol]: it took 4 nM to reach a half-maximal effect (EC50).
The compound `C[C@]1(COc2ccc3ccc(N)nc3c2)C[C@@H](n2ccc3c(N)ncnc32)[C@H](O)[C@@H]1O` [Example 101, (1S,2R,3R,5R)-5-(4-amino-7H-pyrrolo[2,3-d]pyrimidin-7-yl)-3-(((2-aminoquinolin-7-yl)oxy)methyl)-3-methylcyclopentane-1,2-diol] showed an EC50 of 1 nM. Against the preceding compound, the EC50 is about 4-fold lower.
With `C[C@]1(COc2ccc3cc(Br)c(N)nc3c2)C[C@@H](n2ccc3c(N)ncnc32)[C@H](O)[C@]1(C)O` [Example 111, (1R,2S,3R,5R)-5-(((2-amino-3-bromoquinolin-7-yl)oxy)methyl)-3-(4-amino-7H-pyrrolo[2,3-d]pyrimidin-7-yl)-1,5-dimethylcyclopentane-1,2-diol], the EC50 amounted to 2330 nM. This EC50 is about 2300-fold higher than that of the compound before.
As to `Cc1cn([C@@H]2O[C@@H]3[C@H](Cc4ccc5cc(Br)c(N)nc5c4)CC[C@]3(O)[C@H]2O)c2ncnc(N)c12` [Example 70, (2R,3R,3aS,6S,6aR)-6-((2-amino-3-bromoquinolin-7-yl)methyl)-2-(4-amino-5-methyl-7H-pyrrolo[2,3-d]pyrimidin-7-yl)hexahydro-3aH-cyclopenta[b]furan-3,3a-diol 2,2,2-trifluoroacetate], the EC50 was found to be 1 nM. Compared with the last compound, the EC50 is about 2300-fold lower.
To `Cc1cn([C@@H]2C[C@@H]3[C@H](Cc4ccc5cc(Cl)c(N)nc5c4)CC[C@]3(O)[C@H]2O)c2ncnc(N)c12` [Example 39, (1S,2R,3aR,4S,6aR)-4-((2-amino-3-chloroquinolin-7-yl)methyl)-2-(4-amino-5-methyl-7H-pyrrolo[2,3-d]pyrimidin-7-yl)hexahydropentalene-1,6a(1H)-diol] belongs 0.3 nM; to `Cc1cc2ccc(OC[C@H]3C[C@@H](n4ccc5c(C)ncnc54)[C@H](O)[C@]3(C)O)cc2nc1N` [Example 106, (1R,2S,3R,5R)-5-(((2-amino-3-methylquinolin-7-yl)oxy)methyl)-1-methyl-3-(4-methyl-7H-pyrrolo[2,3-d]pyrimidin-7-yl)cyclopentane-1,2-diol], 0.5 nM; to `Nc1nc2cc(C[C@H]3[C@H]4O[C@@H](n5ccc6c(N)ncnc65)[C@H](O)[C@@]4(O)C[C@@H]3F)ccc2cc1F` [Example 54, (2R,3R,3aS,5S,6S,6aR)-6-[(2-amino-3-fluoroquinolin-7-yl)methyl]-2-(4-amino-7H-pyrrolo[2,3-d]pyrimidin-7-yl)-5-fluorohexahydro-3aH-cyclopenta[b]furan-3,3a-diol], 8.1 nM.
To `CC(C)(O)c1ncnc2c1ccn2[C@@H]1O[C@@H]2[C@@H](Oc3ccc4cc(Br)c(N)nc4c3)CC[C@]2(O)[C@H]1O` [Example 78, (2R,3R,3aS,6S,6aR)-6-1(2-amino-3-bromoquinolin-7-yl)oxyl-2-[4-(2-hydroxypropan-2-yl)-7H-pyrrolo[2,3-d]pyrimidin-7-yl]hexahydro-3aH-cyclcopenta[b]furan-3,3a-diol] belongs 5990 nM; to `Nc1nc2cc(C[C@@H]3CC[C@@]4(O)[C@@H]3O[C@@H](n3cc(F)c5c(N)ncnc53)[C@@H]4O)ccc2cc1Cl` [Example 68, (2R,3R,3aS,6S,6aR)-6-((2-amino-3-chloroquinolin-7-yl)methyl)-2-(4-amino-5-fluoro-7H-pyrrolo[2,3-d]pyrimidin-7-yl)hexahydro-3aH-cyclopenta[b]furan-3,3a-diol], 1.1 nM; to `Nc1nc2cc(O[C@H]3CC[C@@]4(O)[C@@H]3O[C@@H](n3ccc5c(N)ncnc53)[C@@H]4O)ccc2cc1F` [Example 71, (2R,3R,3aS,6S,6aR)-6-((2-amino-3-fluoroquinolin-7-yl)oxy)-2-(4-amino-7H-pyrrolo[2,3-d]pyrimidin-7-yl)hexahydro-3aH-cyclopenta[b]furan-3,3a-diol], 9 nM.
For the compound `Cc1ncnc2c1ccn2[C@@H]1C[C@](C)(CCc2ccc3cc4c(nc3c2)NCC4)[C@@H](O)[C@H]1O` [Example 110, (1S,2R,3S,5R)-3-(2-(2,3-dihydro-1H-pyrrolo[2,3-b]quinolin-7-yl)ethyl)-3-methyl-5-(4-methyl-7H-pyrrolo[2,3-d]pyrimidin-7-yl)cyclopentane-1,2-diol], the midpoint of the response, the EC50, lay at 39.6 nM. Against the preceding compound, the EC50 is about 4.4-fold higher.
Next, `Cc1ncnc2c1ccn2[C@@H]1O[C@@H]2[C@H](Cc3ccc4cc(Cl)c(N)nc4c3)CC[C@]2(O)[C@H]1O` [Example 122, (2R,3R,3aS,6S,6aR)-6-((2-amino-3-chloroquinolin-7-yl)methyl)-2-(4-methyl-7H-pyrrolo[2,3-d]pyrimidin-7-yl)hexahydro-3aH-cyclopenta[b]furan-3,3a-diol]: 2.5 nM; `Cc1ncnc2c1ccn2[C@@H]1C[C@](C)(CCc2ccc3cc(Br)c(N)nc3c2)[C@@H](O)[C@H]1O` [Example 109, (1S,2R,3S,5R)-3-(2-(2-amino-3-bromoquinolin-7-yl)ethyl)-3-methyl-5-(4-methyl-7H-pyrrolo[2,3-d]pyrimidin-7-yl)cyclopentane-1,2-diol]: 5.9 nM.
With `Nc1nc2cc(C[C@H]3[C@H]4O[C@@H](n5cc(F)c6c(N)ncnc65)[C@H](O)[C@@]4(O)C[C@@H]3F)ccc2cc1F` [Example 55, (2R,3R,3aS,5S,6S,6aR)-2-(4-amino-5-fluoro-7H-pyrrolo[2,3-d]pyrimidin-7-yl)-6-[(2-amino-3-fluoroquinolin-7-yl)methyl]-5-fluorohexahydro-3aH-cyclopenta[b]furan-3,3a-diol,2,2,2-trifluoroethanol], the EC50 turned out to be 3.9 nM. Against the preceding compound, the EC50 is about 1.5-fold lower.
To `C[C@]1(CCc2ccc3cc(Br)c(N)nc3c2)C[C@@H](n2ccc3c(N)ncnc32)[C@H](O)[C@@H]1O` [Example 15, (1S,2R,3S,5R)-3-[2-(2-amino-3-bromo-7-quinolinyl)ethyl]-5-(4-amino-7H-pyrrolo[2,3-d]pyrimidin-7-yl)-3-methyl-1,2-cyclopentanediol] belongs 0.5 nM.
To `Nc1nc2cc(C[C@H]3[C@H]4O[C@@H](n5ccc6c(N)ncnc65)[C@H](O)[C@@]4(O)CC3(F)F)ccc2cc1F` [Example 53, (2R,3R,3aS,6S,6aR)-6-[(2-amino-3-fluoroquinolin-7-yl)methyl]-2-(4-amino-7H-pyrrolo[2,3-d]pyrimidin-7-yl)-5,5-difluorohexahdro-3aH-cyclopenta[b]furan-3,3a-diol] belongs 4.5 nM.
